Data from ChEMBL document CHEMBL3046319, “PCR-RFLP detection of the E198A mutation conferring resistance to benzimidazoles in field isolates of Monilinia laxa from Greece” (Crop Prot, 2012).

Experiments:
Type in all cases: functional
Monilinia laxa [1] = assay: Fungicidal activity against Monilinia laxa isolate MLG1 assessed as mycelial growth at 0.05 ug/ml at 25 degC after 4 days
Monilinia laxa [2] = assay: Fungicidal activity against Monilinia laxa isolate MLX1 assessed as mycelial growth at 0.05 ug/ml at 25 degC after 4 days
Monilinia laxa [3] = assay: Fungicidal activity against Monilinia laxa isolate MLBO2 assessed as mycelial growth at 0.05 ug/ml at 25 degC after 4 days
Monilinia laxa [4] = assay: Fungicidal activity against Monilinia laxa isolate MLA1 assessed as mycelial growth at 0.05 ug/ml at 25 degC after 4 days
Monilinia laxa [5] = assay: Fungicidal activity against Monilinia laxa isolate MLC2 assessed as mycelial growth at 0.05 ug/ml at 25 degC after 4 days
Monilinia laxa [6] = assay: Fungicidal activity against Monilinia laxa isolate MLK12 assessed as mycelial growth at 0.05 ug/ml at 25 degC after 4 days
Monilinia laxa [7] = assay: Fungicidal activity against Monilinia laxa isolate MLBO5 assessed as mycelial growth at 0.05 ug/ml at 25 degC after 4 days
Monilinia laxa [8] = assay: Fungicidal activity against Monilinia laxa isolate MLK1 assessed as mycelial growth at 0.05 ug/ml at 25 degC after 4 days
Monilinia laxa [9] = assay: Fungicidal activity against Monilinia laxa isolate MLX5 assessed as mycelial growth at 0.05 ug/ml at 25 degC after 4 days
Monilinia laxa [10] = assay: Fungicidal activity against Monilinia laxa isolate MLP2 assessed as mycelial growth at 0.05 ug/ml at 25 degC after 4 days
Monilinia laxa [11] = assay: Fungicidal activity against Monilinia laxa isolate MLP4 assessed as mycelial growth at 0.05 ug/ml at 25 degC after 4 days
Monilinia laxa [12] = assay: Fungicidal activity against Monilinia laxa isolate MLG1 assessed as mycelial growth at 1 ug/ml at 25 degC after 4 days
Monilinia laxa [13] = assay: Fungicidal activity against Monilinia laxa isolate MLP2 assessed as mycelial growth at 1 ug/ml at 25 degC after 4 days
Monilinia laxa [14] = assay: Fungicidal activity against Monilinia laxa isolate MLX1 assessed as mycelial growth at 1 ug/ml at 25 degC after 4 days
Monilinia laxa [15] = assay: Fungicidal activity against Monilinia laxa isolate MLC2 assessed as mycelial growth at 1 ug/ml at 25 degC after 4 days
Monilinia laxa [16] = assay: Fungicidal activity against Monilinia laxa isolate MLK1 assessed as mycelial growth at 1 ug/ml at 25 degC after 4 days
Monilinia laxa [17] = assay: Fungicidal activity against Monilinia laxa isolate MLP4 assessed as mycelial growth at 1 ug/ml at 25 degC after 4 days
Monilinia laxa [18] = assay: Fungicidal activity against Monilinia laxa isolate MLBO2 assessed as mycelial growth at 1 ug/ml at 25 degC after 4 days
Monilinia laxa [19] = assay: Fungicidal activity against Monilinia laxa isolate MLBO5 assessed as mycelial growth at 1 ug/ml at 25 degC after 4 days
Monilinia laxa [20] = assay: Fungicidal activity against Monilinia laxa isolate MLA1 assessed as mycelial growth at 1 ug/ml at 25 degC after 4 days
Monilinia laxa [21] = assay: Fungicidal activity against Monilinia laxa isolate MLX5 assessed as mycelial growth at 1 ug/ml at 25 degC after 4 days
Monilinia laxa [22] = assay: Fungicidal activity against Monilinia laxa isolate MLK12 assessed as mycelial growth at 1 ug/ml at 25 degC after 4 days
Monilinia laxa [23] = assay: Fungicidal activity against Monilinia laxa isolate MLX5 assessed as mycelial growth at 0.5 ug/ml at 25 degC after 4 days
Monilinia laxa [24] = assay: Fungicidal activity against Monilinia laxa isolate MLP4 assessed as mycelial growth at 0.5 ug/ml at 25 degC after 4 days
Monilinia laxa [25] = assay: Fungicidal activity against Monilinia laxa isolate MLX1 assessed as mycelial growth at 0.5 ug/ml at 25 degC after 4 days
Monilinia laxa [26] = assay: Fungicidal activity against Monilinia laxa isolate MLBO2 assessed as mycelial growth at 0.5 ug/ml at 25 degC after 4 days
Monilinia laxa [27] = assay: Fungicidal activity against Monilinia laxa isolate MLBO5 assessed as mycelial growth at 0.5 ug/ml at 25 degC after 4 days
Monilinia laxa [28] = assay: Fungicidal activity against Monilinia laxa isolate MLG1 assessed as mycelial growth at 0.5 ug/ml at 25 degC after 4 days
Monilinia laxa [29] = assay: Fungicidal activity against Monilinia laxa isolate MLK12 assessed as mycelial growth at 0.5 ug/ml at 25 degC after 4 days
Monilinia laxa [30] = assay: Fungicidal activity against Monilinia laxa isolate MLK1 assessed as mycelial growth at 0.5 ug/ml at 25 degC after 4 days
Monilinia laxa [31] = assay: Fungicidal activity against Monilinia laxa isolate MLC2 assessed as mycelial growth at 0.5 ug/ml at 25 degC after 4 days
Monilinia laxa [32] = assay: Fungicidal activity against Monilinia laxa isolate MLA1 assessed as mycelial growth at 0.5 ug/ml at 25 degC after 4 days
Monilinia laxa [33] = assay: Fungicidal activity against Monilinia laxa isolate MLP2 assessed as mycelial growth at 0.5 ug/ml at 25 degC after 4 days
Monilinia laxa [34] = assay: Fungicidal activity against Monilinia laxa isolate MLG1 assessed as mycelial growth at 5 ug/ml at 25 degC after 4 days
Monilinia laxa [35] = assay: Fungicidal activity against Monilinia laxa isolate MLX5 assessed as mycelial growth at 5 ug/ml at 25 degC after 4 days
Monilinia laxa [36] = assay: Fungicidal activity against Monilinia laxa isolate MLBO2 assessed as mycelial growth at 5 ug/ml at 25 degC after 4 days
Monilinia laxa [37] = assay: Fungicidal activity against Monilinia laxa isolate MLK1 assessed as mycelial growth at 5 ug/ml at 25 degC after 4 days
Monilinia laxa [38] = assay: Fungicidal activity against Monilinia laxa isolate MLX1 assessed as mycelial growth at 5 ug/ml at 25 degC after 4 days
Monilinia laxa [39] = assay: Fungicidal activity against Monilinia laxa isolate MLK12 assessed as mycelial growth at 5 ug/ml at 25 degC after 4 days
Monilinia laxa [40] = assay: Fungicidal activity against Monilinia laxa isolate MLP2 assessed as mycelial growth at 5 ug/ml at 25 degC after 4 days
Monilinia laxa [41] = assay: Fungicidal activity against Monilinia laxa isolate MLBO5 assessed as mycelial growth at 5 ug/ml at 25 degC after 4 days
Monilinia laxa [42] = assay: Fungicidal activity against Monilinia laxa isolate MLC2 assessed as mycelial growth at 5 ug/ml at 25 degC after 4 days
Monilinia laxa [43] = assay: Fungicidal activity against Monilinia laxa isolate MLP4 assessed as mycelial growth at 5 ug/ml at 25 degC after 4 days
Monilinia laxa [44] = assay: Fungicidal activity against Monilinia laxa isolate MLA1 assessed as mycelial growth at 5 ug/ml at 25 degC after 4 days
Monilinia laxa [45] = assay: Fungicidal activity against Monilinia laxa isolate MLA1 assessed as mycelial growth at 0.1 ug/ml at 25 degC after 4 days
Monilinia laxa [46] = assay: Fungicidal activity against Monilinia laxa isolate MLK12 assessed as mycelial growth at 0.1 ug/ml at 25 degC after 4 days
Monilinia laxa [47] = assay: Fungicidal activity against Monilinia laxa isolate MLK1 assessed as mycelial growth at 0.1 ug/ml at 25 degC after 4 days
Monilinia laxa [48] = assay: Fungicidal activity against Monilinia laxa isolate MLG1 assessed as mycelial growth at 0.1 ug/ml at 25 degC after 4 days
Monilinia laxa [49] = assay: Fungicidal activity against Monilinia laxa isolate MLBO5 assessed as mycelial growth at 0.1 ug/ml at 25 degC after 4 days
Monilinia laxa [50] = assay: Fungicidal activity against Monilinia laxa isolate MLBO2 assessed as mycelial growth at 0.1 ug/ml at 25 degC after 4 days
Monilinia laxa [51] = assay: Fungicidal activity against Monilinia laxa isolate MLP4 assessed as mycelial growth at 0.1 ug/ml at 25 degC after 4 days
Monilinia laxa [52] = assay: Fungicidal activity against Monilinia laxa isolate MLP2 assessed as mycelial growth at 0.1 ug/ml at 25 degC after 4 days
Monilinia laxa [53] = assay: Fungicidal activity against Monilinia laxa isolate MLC2 assessed as mycelial growth at 0.1 ug/ml at 25 degC after 4 days
Monilinia laxa [54] = assay: Fungicidal activity against Monilinia laxa isolate MLX5 assessed as mycelial growth at 0.1 ug/ml at 25 degC after 4 days
Monilinia laxa [55] = assay: Fungicidal activity against Monilinia laxa isolate MLX1 assessed as mycelial growth at 0.1 ug/ml at 25 degC after 4 days

SMILES | Activity (Monilinia laxa [1]) [%] | Activity (Monilinia laxa [2]) [%] | Activity (Monilinia laxa [3]) [%] | Activity (Monilinia laxa [4]) [%] | Activity (Monilinia laxa [5]) [%] | Activity (Monilinia laxa [6]) [%] | Activity (Monilinia laxa [7]) [%] | Activity (Monilinia laxa [8]) [%] | Activity (Monilinia laxa [9]) [%] | Activity (Monilinia laxa [10]) [%] | Activity (Monilinia laxa [11]) [%] | Activity (Monilinia laxa [23]) [%] | Activity (Monilinia laxa [24]) [%] | Activity (Monilinia laxa [25]) [%] | Activity (Monilinia laxa [26]) [%] | Activity (Monilinia laxa [27]) [%] | Activity (Monilinia laxa [28]) [%] | Activity (Monilinia laxa [29]) [%] | Activity (Monilinia laxa [30]) [%] | Activity (Monilinia laxa [31]) [%] | also measured
CC(C)(C)C(O)(CCc1ccc(Cl)cc1)Cn1cncn1 (centres undefined) [TEBUCONAZOLE] | 25.3 | 30.77 | 48.34 | 47.41 | 39.39 | 30 | 49.65 | 22.24 | 65.45 | 34.29 | 35.71 | – | – | – | – | – | – | – | – | – | –
CCCCNC(=O)n1c(NC(=O)OC)nc2ccccc21 [BENOMYL] | – | – | – | – | – | – | – | – | – | – | – | – | – | – | – | – | – | – | – | – | Activity (Monilinia laxa [12]): 0%; Activity (Monilinia laxa [13]): 0%; Activity (Monilinia laxa [14]): 100%; Activity (Monilinia laxa [15]): 80.01%; Activity (Monilinia laxa [16]): 100%; Activity (Monilinia laxa [17]): 100%; Activity (Monilinia laxa [18]): 0%; Activity (Monilinia laxa [19]): 0%; Activity (Monilinia laxa [20]): 0%; Activity (Monilinia laxa [21]): 0%; Activity (Monilinia laxa [22]): 100%
CCC(C)(NC(=O)c1cc(Cl)c(C)c(Cl)c1)C(=O)CCl (centres undefined) [ZOXAMIDE] | – | – | – | – | – | – | – | – | – | – | – | 39.09 | 0 | 0 | 43.33 | 44 | 36.05 | 0 | 0 | 0 | Activity (Monilinia laxa [32]): 48.95%; Activity (Monilinia laxa [33]): 59.09%
COC(=O)N(OC)c1ccccc1COc1ccn(-c2ccc(Cl)cc2)n1 [PYRACLOSTROBIN] | 25 | 29.41 | 40.65 | 36.82 | 34.48 | 37.5 | 49.62 | 50.05 | 51.15 | 50 | 47.32 | – | – | – | – | – | – | – | – | – | –
O=C(Nc1ccccc1-c1ccc(Cl)cc1)c1cccnc1Cl [BOSCALID] | – | – | – | – | – | – | – | – | – | – | – | 0 | 0 | 60.03 | 36.67 | 0 | 0 | 45.05 | 62.05 | 0 | Activity (Monilinia laxa [32]): 42.73%; Activity (Monilinia laxa [33]): 66.82%
CC(C)NC(=O)N1CC(=O)N(c2cc(Cl)cc(Cl)c2)C1=O [IPRODIONE] | – | – | – | – | – | – | – | – | – | – | – | 54.55 | 45.23 | 21.88 | 40.44 | 0 | 35.42 | 45.46 | 57.14 | 46.61 | Activity (Monilinia laxa [32]): 30.22%; Activity (Monilinia laxa [33]): 28.12%
COC(=O)NC(=S)Nc1ccccc1NC(=S)NC(=O)OC [THIOPHANATE METHYL] | – | – | – | – | – | – | – | – | – | – | – | – | – | – | – | – | – | – | – | – | Activity (Monilinia laxa [34]): 0%; Activity (Monilinia laxa [35]): 0%; Activity (Monilinia laxa [36]): 0%; Activity (Monilinia laxa [37]): 100%; Activity (Monilinia laxa [38]): 100%; Activity (Monilinia laxa [39]): 100%; Activity (Monilinia laxa [40]): 0%; Activity (Monilinia laxa [41]): 0%; Activity (Monilinia laxa [42]): 95.25%; Activity (Monilinia laxa [43]): 93.75%; Activity (Monilinia laxa [44]): 0%
N#Cc1c[nH]cc1-c1cccc2c1OC(F)(F)O2 [FLUDIOXONIL] | 15.05 | 21.09 | 17.99 | 16.22 | 18.3 | 12.78 | 11.01 | 13.66 | 17.5 | 16.05 | 13.89 | – | – | – | – | – | – | – | – | – | –
CC1(C(=O)Nc2ccc(O)c(Cl)c2Cl)CCCCC1 [FENHEXAMID] | – | – | – | – | – | – | – | – | – | – | – | – | – | – | – | – | – | – | – | – | Activity (Monilinia laxa [45]): 23.05%; Activity (Monilinia laxa [46]): 60.05%; Activity (Monilinia laxa [47]): 17.65%; Activity (Monilinia laxa [48]): 0%; Activity (Monilinia laxa [49]): 21.05%; Activity (Monilinia laxa [50]): 10.03%; Activity (Monilinia laxa [51]): 45.83%; Activity (Monilinia laxa [52]): 25%; Activity (Monilinia laxa [53]): 50.35%; Activity (Monilinia laxa [54]): 50.34%; Activity (Monilinia laxa [55]): 21.82%
